{
  "source": "patent US11345676B2",
  "about": "“Apoptosis signal-regulating kinase 1 (ASK 1) inhibitor compounds” (PHARMAKEA, INC., priority 2017, dated 2022)",
  "key": {"[1]": {"target": "ASK1 (Homo sapiens (Human), UniProt Q99683)", "sequence (Q99683 649-946)": "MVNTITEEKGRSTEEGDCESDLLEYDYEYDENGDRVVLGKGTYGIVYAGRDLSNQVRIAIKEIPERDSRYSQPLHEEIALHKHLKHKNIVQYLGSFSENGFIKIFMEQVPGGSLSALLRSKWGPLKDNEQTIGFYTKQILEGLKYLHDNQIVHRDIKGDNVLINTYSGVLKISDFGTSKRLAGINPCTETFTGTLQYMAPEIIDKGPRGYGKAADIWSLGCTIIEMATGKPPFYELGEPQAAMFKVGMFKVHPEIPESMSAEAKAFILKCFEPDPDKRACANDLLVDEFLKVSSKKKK", "test": "Human ASK1 ADP-Glo kinase assay", "assay_type": "biochemical", "conditions": "recombinant ASK1 (amino acids 649-946), 50 μM ATP, MBP substrate", "procedure": "Example B-1: Human ASK1 ADP-Glo Assay\nThe ability of test compounds to inhibit ASK1 kinase activity was determined using the luminescent ADP-Glo™ Kinase Assay and Myelin Basic Protein (MBP) as a substrate (Promega Corporation, Madison, Wis.). During the kinase reaction, ASK1 utilizes ATP and generates ADP. The remaining ATP is then depleted by addition of the ADP-Glo™ reagent which also terminates the reaction. Subsequent addition of the Kinase Detection Reagent converts the ADP that was produced during the kinase reaction to ATP, and this newly synthesized ATP is converted to light using the luciferase/luciferin reactions. The assay was performed according to the manufacturer's instructions. Briefly, purified, recombinant ASK1 (amino acids 649-946) (10-20 ng/well) was added to a 384-well, F bottom, small volume, HIbase, white plate (Greiner Bio-One, Monroe, N.C. #784075) containing 1-2 μL 5× test compound or vehicle control (diluted 1:20 from a 100% DMSO stock solution into 1× Reaction Buffer A). The enzyme was allowed to pre-incubate with test compound from 15-120 min at 30° C. before the addition of the ATP/substrate mix (final concentrations of 50 μM ATP+250 ng MBP in 1× Reaction Buffer A). The mixture was then incubated at room temperature for 40 min before the addition of ADP-Glo™ reagent and a second 40 minute room temperature incubation. Following the addition of the Kinase Detection Reagent, the plate was incubated for an additional 40 min at room temperature before reading luminescence on a FlexStation 3 (Molecular Devices, Sunnyvale, Calif.). Maximum activity was determined from wells treated with vehicle and was set to 100% and minimum activity was determined from wells containing no enzyme and this was set to 0%. Percent inhibition was calculated relative to the controls and the data graphed in Collaborative Drug Discovery (CDD) Vault (Burlingame, Calif.)."}, "[2]": {"target": "human LOXL2 (Homo sapiens (Human), UniProt Q9Y4K0)", "sequence (Q9Y4K0 26-774)": "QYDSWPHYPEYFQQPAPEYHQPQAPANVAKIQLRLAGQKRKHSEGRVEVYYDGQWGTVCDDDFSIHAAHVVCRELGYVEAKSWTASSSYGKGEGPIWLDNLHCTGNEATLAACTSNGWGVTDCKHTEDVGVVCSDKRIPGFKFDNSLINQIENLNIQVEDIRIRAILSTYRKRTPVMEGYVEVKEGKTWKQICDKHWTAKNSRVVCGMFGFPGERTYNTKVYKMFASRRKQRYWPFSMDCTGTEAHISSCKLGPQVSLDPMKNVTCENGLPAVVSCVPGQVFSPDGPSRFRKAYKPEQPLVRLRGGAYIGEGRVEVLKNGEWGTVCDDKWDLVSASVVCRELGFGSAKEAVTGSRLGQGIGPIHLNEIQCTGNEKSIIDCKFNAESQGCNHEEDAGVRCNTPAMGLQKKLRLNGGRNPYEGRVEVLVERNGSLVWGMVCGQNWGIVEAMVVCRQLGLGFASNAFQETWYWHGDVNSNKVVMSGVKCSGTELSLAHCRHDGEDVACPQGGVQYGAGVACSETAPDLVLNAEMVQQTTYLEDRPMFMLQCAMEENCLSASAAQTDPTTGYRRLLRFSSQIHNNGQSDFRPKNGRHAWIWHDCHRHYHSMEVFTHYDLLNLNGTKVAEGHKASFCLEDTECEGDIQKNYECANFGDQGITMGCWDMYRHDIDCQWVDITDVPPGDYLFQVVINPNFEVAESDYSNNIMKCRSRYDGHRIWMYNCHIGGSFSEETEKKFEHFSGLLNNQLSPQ", "test": "Human LOXL2 amine oxidase activity assay (Amplex Red)", "assay_type": "biochemical", "conditions": "concentrated conditioned media from CHO cells expressing human LOXL2, 2 h preincubation at 37° C., DAP substrate", "procedure": "Example B-2: Human LOXL2 Amine Oxidase Activity Assay\nLOXL2 amine oxidase activity was evaluated by measuring Amplex Red fluorescence using 10-20× concentrated conditioned media from CHO cells stably expressing human LOXL2. To assay for amine oxidase activity, 10 μL of the concentrated conditioned media was incubated with 2 μL of test compound in DMSO and 73 μL Assay Buffer (50 mM Borate Buffer, pH8) for 2 h at 37° C. After the 2 h incubation, 5 μL of 10 mM 1,5-Diaminopentane (DAP) diluted in Assay Buffer and 10 μL of Amplex Red Mix (8.5 μL Assay Buffer+0.5 μL of 10 mM Amplex Red+1 μL of 500 U/ml Horseradish Peroxidase) were added and the plate mixed and immediately placed on the FlexStation for fluorescence measurements. Fluorescence was read in kinetic mode every 2 min for 0.5-1 hour at excitation=544 and emission=590. The amine oxidase activity was calculated from the slope of the linear portion of the curve. Wells containing vehicle (DMSO) represented maximum activity and were set to 0% inhibition and wells containing 100 μM βAPN (3-aminopropionitrile) represented no activity and were set to 100% inhibition."}},
  "note": "Where a name gives a salt, the structure may show the parent alone.",
  "data": [
    {"smiles": "CC(C)n1cnnc1-c1cccc(NC(=O)c2cc(NC(=O)c3ccc(CN)cc3)ccc2F)n1", "note": "[Compound 1-306, 5-(4-(Aminomethyl)benzamido)-2-fluoro-N-(6-(4-isopropyl-4H-1,2,4-triazol-3-yl)pyridin-2-yl)benzamide hydrochloride]", "values": [
      {"measurement": "IC50", "setting": "[1]", "value": "< 300", "unit": "nM"},
      {"measurement": "IC50", "setting": "[2]", "value": "> 1000", "unit": "nM"}
    ]},
    {"smiles": "NCc1cc(Oc2ccnc(C(=O)Nc3cccc(-c4nncn4C4CC4)n3)c2)nc(C(F)(F)F)c1", "note": "[Compound 1-330, 4-((4-(Aminomethyl)-6-(trifluoromethyl)pyridin-2-yl)oxy)-N-(6-(4-cyclopropyl-4H-1,2,4-triazol-3-yl)pyridin-2-yl)picolinamide hydrochloride]", "values": [
      {"measurement": "IC50", "setting": "[1]", "value": "< 300", "unit": "nM"},
      {"measurement": "IC50", "setting": "[2]", "value": "< 300", "unit": "nM"}
    ]},
    {"smiles": "CC(C)n1cnnc1-c1cccc(NC(=O)c2cccc(Oc3cc(CN)cc(C(F)(F)F)n3)c2)n1", "note": "[Compound 1-331, 3-((4-(Aminomethyl)-6-(trifluoromethyl)pyridin-2-yl)oxy)-N-(6-(4-isopropyl-4H-1,2,4-triazol-3-yl)pyridin-2-yl)benzamide hydrochloride]", "values": [
      {"measurement": "IC50", "setting": "[1]", "value": "< 300", "unit": "nM"},
      {"measurement": "IC50", "setting": "[2]", "value": "< 300", "unit": "nM"}
    ]}
  ]
}
